Reference: US6964975B2, “Isoxazole and thiazole compounds and use thereof as medicine” (Kirin Beer Kabushiki Kaisha, priority 2000, dated 2005)

What was measured:
[1] = system: ovarian carcinoma cells (SKOV3); test: Inhibitory activity against BrdU incorporation, LPA-stimulated ovarian carcinoma cells; assay type: cell-based, human; conditions: SKOV3, LPA 3 μM, FIG. 2B
Protocol: (§1) Human brain tumor cells (U87 MG) and ovarian carcinoma cells (SKOV3) suspended in serum-free DMEM were plated on a 96-well plate. 24 hours later, Compound 115 and LPA (3 μM) were added and the mixture was cultured for 16 hours, followed by the BrdU addition. Culture was continued for 3 hours from the addition of BrdU. Thereafter, the incorporation of BrdU into the cells was assayed based on the absorbance at 450 nm using the Cell proliferation ELISA system (RPN250, Amersham LIFE SCIENCE).

human EDG-2 = molecular target: T1, human EDG-2 (Homo sapiens, UniProt Q92633); test: Inhibitory activity on LPA-induced elevation of intracellular Ca2+ level; assay type: cell-based; conditions: 50% inhibition of elevation of intracellular Ca2+ level by LPA, human EDG-2/HepG2 cells, fura-2
T1 construct: cDNA of the cloned human EDG-2 was introduced into pEFneo, which is an animal expression vector; expressed in transfected cells; host or cells: HepG2
T1 sequence (Q92633 whole entry): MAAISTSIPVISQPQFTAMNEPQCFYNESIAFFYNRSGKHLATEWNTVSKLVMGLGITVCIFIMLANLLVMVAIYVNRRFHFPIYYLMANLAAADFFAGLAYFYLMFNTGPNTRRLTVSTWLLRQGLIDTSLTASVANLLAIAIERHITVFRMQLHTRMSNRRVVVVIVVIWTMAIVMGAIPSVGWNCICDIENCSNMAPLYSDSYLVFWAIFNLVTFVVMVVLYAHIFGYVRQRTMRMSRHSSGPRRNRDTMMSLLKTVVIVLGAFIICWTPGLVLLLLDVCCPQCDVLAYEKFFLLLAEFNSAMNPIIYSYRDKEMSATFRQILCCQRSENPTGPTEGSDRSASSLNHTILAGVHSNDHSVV
How it was run: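 Stably transfected HepG2 cells loaded with fura-2/AM (45 min, room temperature) in 0.1% BSA HEPES buffer. Test compound added before LPA, and the LPA-evoked intracellular Ca2+ rise measured fluorometrically. IC50 for inhibition derived.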

[2] = Solubility in water (remark); assay type: physicochemical; conditions: white powder
[3] = system: Human brain tumor cells (U87 MG); test: Inhibitory activity against BrdU incorporation, LPA-stimulated brain tumor cells; assay type: cell-based; conditions: LPA 3 μM, FIG. 2A
Protocol: as §1

[4] = system: lactic acid induced peripheral circulatory disturbance in rats; test: Rat model of lactic acid induced peripheral circulatory disturbance (lesion score); assay type: in vivo; conditions: for Score of lesion: mean ± S.E.
Description: Peripheral arterial obstructions including clinical arteriosclerosis obliterans (ASO) are, in common, chronic diseases, which often cause ulcer or necrosis in lower limbs, and lesions are worsened by arterial thrombotic infarcts upstream of the lesions. Therefore, the target of the treatment for the above diseases is to inhibit the progress and to eliminate the ischemic symptoms. Antiplatelet drugs and anticoagulants are often used therefor. […] ID3016511 (Compound 115), which is one of the compounds according to the present invention, is selected as an example and administered daily to a rat model of lactic acid induced peripheral circulatory disturbance used as an animal model of peripheral arterial obstruction to examine the drug's therapeutic effect.
13-week old Wister male rats were used in test groups of 10 rats. Each rat was fixed in a face-up position under anesthesia by 40 mg/kg of intraperitoneally administered pentobarbital sodium. The left femoral region was then incised and 0.1 ml of 5% lactic acid solution was administered into the femoral artery. Adhesives were applied dropwise at the lactic acid administered site for blood stanching. Thereafter, a penicillin G solution was added dropwise to prevent infections and the incised part was sutured. […] The solvent and the test solution were orally administered. Administration was carried out 2 hours before lactic acid administration and, thereafter, twice a day at an interval of at least 7 hours for 13 days repeatedly. […] The positive control material was administered 3 hours before the lactic acid administration, and it was repeatedly orally administered twice a day for 13 days in the same way as the above test compound. The progress of lesion on legs and feet was observed 3, 7, and 14 days after the lactic acid administration and the results were scored from 0 to 4 based on the following criteria:
1: nigrities limited to the tiptoe
2: nigrities reaching toe
Each toe was scored and the sum of scores for each toe was determined as a lesion index. When the damage reached the sole, 5 points were added.
The significant difference between the control group and the test material group was assayed by the non-parametric Dunnet's test. The significant difference between the control group and the positive control material group was assayed by the non-parametric Wilcoxon's test.

Human EDG-2/HepG2 cells = test: Inhibitory activity on LPA-accelerated [3H] thymidine incorporation (cell proliferation); assay type: cell-based; conditions: 50% inhibition of LPA-induced increase of [3H] thymidine incorporation
How it was run: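 HepG2 cells stably overexpressing human EDG-2, serum-starved 24 h, received compound immediately before LPA and were cultured 16 h, followed by 8 h [3H]thymidine labelling. LPA-stimulated proliferation was taken as incorporation in LPA wells minus LPA-free wells.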

Compound | IC50 (human EDG-2) | IC50 (Human EDG-2/HepG2 cells) | also measured
COC(=O)CCSCc1ccc(-c2onc(C)c2NC(=O)OC(C)c2ccccc2Cl)cc1 (stereo not drawn) [Compound 115, Methyl 3-({4-[4-({[1-(2-chlorophenyl)ethoxy]carbonyl}amino)-3-methyl-5-isoxazolyl]-benzyl}sulfanyl)propanoate] | 1000 to 3000 nM | 10 to 30 nM | Concentration at which proliferation (BrdU incorporation) was inhibited in a concentration dependent manner [1]: ≥ 0.3 µM; Solubility in water [2]: poor solubility in water; Concentration at which proliferation (BrdU incorporation) was inhibited in a concentration dependent manner [3]: ≥ 0.3 µM; Score of lesion ([4]; 20 mg/kg twice/day p.o., 3 days after lactic acid injection): 2.6 ± 0.8; Score of lesion ([4]; 20 mg/kg twice/day p.o., 7 days after lactic acid injection): 4.3 ± 1.0; Score of lesion ([4]; 20 mg/kg twice/day p.o., 14 days after lactic acid injection): 6.9 ± 1.4; Score of lesion ([4]; 60 mg/kg twice/day p.o., 7 days after lactic acid injection): 1.9 ± 0.5; Progress of lesions in the feet and legs ([4]; dose of 60 mg/kg): inhibited the progress of lesions; Progress of lesion versus control group ([4]; repeated administration of 20 mg/kg for 14 days): equivalent level of progress with the control group
Cc1noc(-c2ccc(CSCCC(=O)O)cc2)c1NC(=O)OC(C)c1ccccc1Cl (stereo not drawn) [Compound 126, 3-({4-[4-({[1-(2-Chlorophenyl)ethoxy]carbonyl}amino)-3-methyl-5-isoxazolyl]benzyl}-sulfanyl)propanoic acid] | 3000 to 10000 nM | 10 to 30 nM | –
CCc1noc(-c2ccc(CSCC(=O)O)cc2)c1NC(=O)OC(C)c1ccccc1Cl (stereo not drawn) [Compound 154, 2-({4-[4-({[1-(2-Chlorophenyl)ethoxy]carbonyl}amino)-3-ethyl-5-isoxazolyl]benzyl}-sulfanyl)acetic acid] | 3000 to 10000 nM | 100 to 300 nM | –
CCOCc1cccc(-c2onc(C)c2NC(=O)OC(C)c2ccccc2Cl)c1 (stereo not drawn) [Compound 129, 1-(2-Chlorophenyl)ethyl N-{5-[3-(ethoxymethyl)phenyl]-3-methyl-4-isoxazolyl}carbamate] | 3000 to 10000 nM | 300 to 1000 nM | –
CCCCCNCc1ccc(-c2onc(C)c2NC(=O)OC(C)c2ccccc2Cl)cc1 (stereo not drawn) [Compound 109, 1-(2-Chlorophenyl)ethyl N-(3-methyl-5-{4-[(pentylamino)methyl]phenyl}-4-isoxazolyl)carbamate] | 10000 to 30000 nM | 1000 to 3000 nM | –
Cc1noc(-c2ccncc2)c1NC(=O)OC(C)c1ccccc1Cl (stereo not drawn) [Compound 62, 1-(2-Chlorophenyl)ethyl N-[3-methyl-5-(4-pyridyl)-4-isoxazolyl]carbamate] | 3000 nM | 3000 nM | –
Cc1noc(-c2cccc(CSCCC(=O)O)c2)c1NC(=O)OC(C)c1ccccc1Cl (stereo not drawn) [Compound 159, 3-({3-[4-({[1-(2-Chlorophenyl)ethoxy]carbonyl}amino)-3-methyl-5-isoxazolyl]benzyl}-sulfanyl)propanoic acid] | 3000 nM | 300 nM | –
Cc1noc(-c2ccc(CNCC3CCCO3)cc2)c1NC(=O)OC(C)c1ccccc1Cl (stereo not drawn) [Compound 104, 1-(2-Chlorophenyl)ethyl N-[3-methyl-5-(4-{[(tetrahydro-2-furanylmethyl)amino]-methyl}phenyl)-4-isoxazolyl]carbamate] | 10000 to 30000 nM | 3000 nM | –
CCNCc1ccc(-c2onc(C)c2NC(=O)OC(C)c2ccccc2Cl)cc1 (stereo not drawn) [Compound 116, 1-(2-Chlorophenyl)ethyl N-(5-{4-[(ethylamino)methyl]phenyl}-3-methyl-4-isoxazolyl)-carbamate] | 30000 to 100000 nM | 300 to 1000 nM | –
